Results taken from paper PMC9950073, “Alleviation of arthritis through prevention of neutrophil extracellular traps by an orally available inhibitor of protein arginine deiminase 4” (Scientific Reports, 2023).
pIC50: −log10 of the molar value.

Experiments:
Rat pharmacokinetics = conditions: in vivo, dose not given
Source text: Supplement 41598_2023_30246_MOESM1_ESM.docx, table 3: Supplementary Table S3. In vivo pharmacokinetic parameters of JBI-589 in mouse and rat | column: Dose; t1/2; Cmax; C0; AUC0-t; AUC0-∞; CL; F

human recombinant PAD6 = target: T1, human recombinant PAD6 (Homo sapiens, UniProt Q6TGC4); experiment: PAD6 selectivity biochemical assay measuring ammonia release; conditions: 10 semi-log concentrations, highest concentration tested 30 µM
T1 construct: purchased Signal Chem T1065-3
T1 sequence (Q6TGC4 1-694): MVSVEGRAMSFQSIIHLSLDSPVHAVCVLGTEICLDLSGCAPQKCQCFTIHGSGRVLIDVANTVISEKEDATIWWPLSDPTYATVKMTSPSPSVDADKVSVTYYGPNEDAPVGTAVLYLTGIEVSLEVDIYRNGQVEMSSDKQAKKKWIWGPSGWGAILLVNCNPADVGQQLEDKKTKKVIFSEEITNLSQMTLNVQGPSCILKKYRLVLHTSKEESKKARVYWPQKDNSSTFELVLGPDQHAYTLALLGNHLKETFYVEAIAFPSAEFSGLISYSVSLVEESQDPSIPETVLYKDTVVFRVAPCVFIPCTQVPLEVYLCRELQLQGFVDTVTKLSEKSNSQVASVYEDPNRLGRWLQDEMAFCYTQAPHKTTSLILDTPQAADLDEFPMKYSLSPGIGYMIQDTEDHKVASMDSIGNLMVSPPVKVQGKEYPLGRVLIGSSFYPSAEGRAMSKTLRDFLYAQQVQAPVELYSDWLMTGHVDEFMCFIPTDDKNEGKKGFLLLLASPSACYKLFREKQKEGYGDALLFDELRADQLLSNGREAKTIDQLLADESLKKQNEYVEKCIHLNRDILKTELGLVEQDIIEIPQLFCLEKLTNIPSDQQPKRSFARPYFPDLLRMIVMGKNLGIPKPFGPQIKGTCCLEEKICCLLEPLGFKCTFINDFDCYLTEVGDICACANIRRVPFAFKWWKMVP

human recombinant PAD2 = target: T2, human recombinant PAD2 (Homo sapiens, UniProt Q9Y2J8); experiment: PAD2 selectivity biochemical assay measuring ammonia release; conditions: 10 semi-log concentrations, highest concentration tested 30 µM
T2 construct: purchased Cayman Chemicals 10785

CYP1A2 = target: T3, CYP1A2 (Homo sapiens, UniProt P05177); experiment: CYP inhibition in human liver microsome, CYP1A2; assay type: in vitro ADME
T3 construct: from tissue; host or cells: human liver microsomes
T3 sequence (P05177 1-516): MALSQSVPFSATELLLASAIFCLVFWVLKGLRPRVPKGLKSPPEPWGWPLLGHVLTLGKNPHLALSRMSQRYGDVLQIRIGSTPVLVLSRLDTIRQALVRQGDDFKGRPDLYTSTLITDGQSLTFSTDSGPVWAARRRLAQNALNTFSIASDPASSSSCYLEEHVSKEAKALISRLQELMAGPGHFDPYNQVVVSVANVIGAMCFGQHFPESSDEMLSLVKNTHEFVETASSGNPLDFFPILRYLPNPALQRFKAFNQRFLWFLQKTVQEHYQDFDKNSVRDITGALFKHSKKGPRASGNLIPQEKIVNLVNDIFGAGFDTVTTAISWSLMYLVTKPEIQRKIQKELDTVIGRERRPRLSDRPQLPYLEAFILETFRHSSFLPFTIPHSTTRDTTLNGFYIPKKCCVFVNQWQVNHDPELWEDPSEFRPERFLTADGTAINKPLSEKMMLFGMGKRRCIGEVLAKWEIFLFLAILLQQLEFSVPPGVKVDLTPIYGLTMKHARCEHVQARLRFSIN
Protocol: (§1) CYP inhibition: Human liver microsome (0.1–0.5 mg/mL for various CYPs) and appropriate probe substrates (2.5–20 µM) were incubated in potassium phosphate buffer with or without JBI-589 for 5 min at 37 °C. The reaction was initiated by addition of NADPH (1 mM), incubated at 37 °C for 10 min and quenched (0.5% Formic acid in internal standard (IS) containing ACN). Samples were then centrifuged and taken for LC–MS/MS analysis. Percent change in metabolite formation for each substrate under above conditions using formula: Percent inhibition = [1 − (test area ratio/control area ratio)] *100.

[1] = system: collagen induced arthritis; experiment: Collagen induced arthritis model in DBA/1 mice; assay type: in vivo; conditions: Dexamethasone dose not given
human recombinant PAD1 = target: T4, human recombinant PAD1 (Homo sapiens, UniProt Q9ULC6); experiment: PAD1 selectivity biochemical assay measuring ammonia release; conditions: 10 semi-log concentrations, highest concentration tested 30 µM
T4 construct: purchased Cayman Chemicals 10784
T4 sequence (Q9ULC6 1-663): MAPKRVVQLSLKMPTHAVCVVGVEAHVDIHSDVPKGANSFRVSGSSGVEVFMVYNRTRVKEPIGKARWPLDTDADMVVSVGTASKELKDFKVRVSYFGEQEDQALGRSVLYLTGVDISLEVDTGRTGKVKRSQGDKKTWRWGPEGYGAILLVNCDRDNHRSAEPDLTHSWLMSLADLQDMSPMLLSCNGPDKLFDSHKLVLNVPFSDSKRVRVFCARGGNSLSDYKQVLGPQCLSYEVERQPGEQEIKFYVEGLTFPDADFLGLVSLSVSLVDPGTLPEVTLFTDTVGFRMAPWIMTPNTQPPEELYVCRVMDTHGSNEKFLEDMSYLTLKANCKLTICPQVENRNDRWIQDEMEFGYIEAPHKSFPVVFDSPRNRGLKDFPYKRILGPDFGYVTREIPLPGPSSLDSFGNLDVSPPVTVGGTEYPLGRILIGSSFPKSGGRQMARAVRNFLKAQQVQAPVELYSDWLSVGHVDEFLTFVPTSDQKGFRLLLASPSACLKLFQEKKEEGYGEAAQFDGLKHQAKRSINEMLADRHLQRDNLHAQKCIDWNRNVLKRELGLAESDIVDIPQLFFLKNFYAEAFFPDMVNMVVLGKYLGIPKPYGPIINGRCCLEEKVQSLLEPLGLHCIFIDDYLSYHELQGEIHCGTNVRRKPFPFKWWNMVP

CYP2D6 = target: T5, CYP2D6 (Homo sapiens, UniProt P10635); experiment: CYP inhibition in human liver microsome, CYP2D6; assay type: in vitro ADME
T5 construct: from tissue; host or cells: human liver microsomes
Protocol: as §1

[2] = predicted from % inhibition, text says major CYPs tested
[3] = JBI-589 50 mg/kg po BID, Etanercept 25 mg/kg IP day 31–45

T5 sequence (P10635 whole entry): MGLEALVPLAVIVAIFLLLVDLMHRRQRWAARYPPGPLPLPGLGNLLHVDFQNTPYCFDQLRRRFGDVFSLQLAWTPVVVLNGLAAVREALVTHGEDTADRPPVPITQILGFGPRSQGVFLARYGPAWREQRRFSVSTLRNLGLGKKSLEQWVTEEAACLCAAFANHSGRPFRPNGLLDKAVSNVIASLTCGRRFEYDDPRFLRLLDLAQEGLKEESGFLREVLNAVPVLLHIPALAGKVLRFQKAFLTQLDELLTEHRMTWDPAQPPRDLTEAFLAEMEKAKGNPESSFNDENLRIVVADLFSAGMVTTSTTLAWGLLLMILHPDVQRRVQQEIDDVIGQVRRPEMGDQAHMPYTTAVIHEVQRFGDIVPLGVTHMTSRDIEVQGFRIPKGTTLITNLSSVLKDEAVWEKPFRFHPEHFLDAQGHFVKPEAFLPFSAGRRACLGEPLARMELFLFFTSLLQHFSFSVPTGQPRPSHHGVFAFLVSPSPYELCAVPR
T2 sequence (Q9Y2J8 whole entry): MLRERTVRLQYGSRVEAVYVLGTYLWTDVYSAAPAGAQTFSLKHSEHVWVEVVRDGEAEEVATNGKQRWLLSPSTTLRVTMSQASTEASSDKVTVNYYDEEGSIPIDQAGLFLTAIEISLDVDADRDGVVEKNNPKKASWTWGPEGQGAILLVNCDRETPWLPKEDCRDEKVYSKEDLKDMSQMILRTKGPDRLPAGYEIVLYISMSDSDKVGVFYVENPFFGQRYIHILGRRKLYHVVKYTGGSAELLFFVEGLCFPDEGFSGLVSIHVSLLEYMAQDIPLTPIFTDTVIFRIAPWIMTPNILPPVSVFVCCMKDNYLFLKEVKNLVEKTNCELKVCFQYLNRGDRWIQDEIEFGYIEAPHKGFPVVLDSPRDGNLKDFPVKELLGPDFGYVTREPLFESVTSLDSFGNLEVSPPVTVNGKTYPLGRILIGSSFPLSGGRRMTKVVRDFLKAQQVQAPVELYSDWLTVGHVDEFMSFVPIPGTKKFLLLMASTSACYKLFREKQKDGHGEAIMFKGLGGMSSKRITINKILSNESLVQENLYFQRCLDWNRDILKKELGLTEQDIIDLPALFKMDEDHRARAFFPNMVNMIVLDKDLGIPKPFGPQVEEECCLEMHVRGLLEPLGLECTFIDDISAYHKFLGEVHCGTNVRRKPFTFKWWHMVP

- AUC(0-inf) (Rat pharmacokinetics; 2 mg/Kg, IV): 1390 ng·h/mL
- AUC(0-t) (Rat pharmacokinetics; 2 mg/Kg, IV): 1320 ng·h/mL
- C0 (Rat pharmacokinetics; 2 mg/Kg, IV): 451 ng/mL
- Cmax (Rat pharmacokinetics; 2 mg/Kg, IV): 419 ng/mL
- Vd (Rat pharmacokinetics; 2 mg/Kg, IV): 13.2 L/kg
- clearance (Rat pharmacokinetics; 2 mg/Kg, IV): 24.3 mL/min/kg
- half-life (Rat pharmacokinetics; 2 mg/Kg, IV): 6.32 h
- AUC(0-inf) (Rat pharmacokinetics; 10 mg/Kg, PO): 3580 ng·h/mL
- AUC(0-t) (Rat pharmacokinetics; 10 mg/Kg, PO): 3390 ng·h/mL
- Cmax (Rat pharmacokinetics; 10 mg/Kg, PO): 335 ng/mL
- bioavailability (Rat pharmacokinetics; 10 mg/Kg, PO): 51.4%
- half-life (Rat pharmacokinetics; 10 mg/Kg, PO): 5.6 h
- inhibitory activity against PAD6 (human recombinant PAD6): did not have any inhibitory activity
- inhibitory activity against PAD2 (human recombinant PAD2): did not have any inhibitory activity
- inhibition at 10 min, 10 µM (CYP1A2; human liver microsomes, 10 µM, human liver microsome, read-out: CYP1A2 inhibition (% inh @10 µM)): < 50%
- pIC50 (CYP1A2; [2]): < 5.00
- inhibitory activity against PAD1 (human recombinant PAD1): did not have any inhibitory activity
- inhibition at 10 min, 10 µM (CYP2D6; human liver microsomes, 10 µM, human liver microsome, read-out: CYP2D6 inhibition (% inh @10 µM)): < 50%
- pIC50 (CYP2D6; [2]): < 5.00
SMILES: Cc1c(-c2cc3ccccc3n2Cc2ccc(F)cc2)nc2cc(C(=O)N3CCC[C@@H](N)C3)ccn12 [JBI-589, (R)-(3-aminopiperidin-1-yl)(2-(1-(4-fluorobenzyl)-1H-indol-2-yl)-3-methylimidazo[1,2-a]pyridin-7-yl)methanone]
- clinical score ([1]; JBI-589 50 mg/kg po BID day 0-45, Etanercept 25 mg/kg IP day 31–45): significantly decreased
- bone erosion (histopathology) [1, 3]: significantly decreased
- joint inflammation (histopathology) [1, 3]: significantly decreased
- pannus formation (histopathology) [1, 3]: significantly decreased
- spleen weight ([1]; day 45, JBI-589 50 mg/kg po BID): no adverse effect
- body weight ([1]; end of study, JBI-589 50 mg/kg po BID): no adverse effect
